# Laboratory results reported in patent publication US7368565B2, “Methods for preparation of cytotoxic conjugates of maytansinoids and cell binding agents” (Immunogen Inc., priority 2001, dated 2008).
# B1: huN901-DM1 conjugate (Sephadex G25): huN901 antibody conjugated in one step with maytansinoid 2, Sephadex G25 purified, average 2.08 DM1 per antibody (conjugate, chains of the INN, looked up)
# VH: QVQLVESGGGVVQPGRSLRLSCAASGFTFSSFGMHWVRQAPGKGLEWVAYISSGSFTIYYADSVKGRFTISRDNSKNTLYLQMNSLRAEDTAVYYCARMRKGYAMDYWGQGTLVTVSS
# VL: DVVMTQSPLSLPVTLGQPASISCRSSQIIIHSDGNTYLEWFQQRPGQSPRRLIYKVSNRFSGVPDRFSGSGSGTDFTLKISRVEAEDVGVYYCFQGSHVPHTFGQGTKVEIK
# modifications: DM1 maytansinoid conjugate
# notes: huN901 antibody conjugated in one step with maytansinoid 2, Sephadex G25 purified, average 2.08 DM1 per antibody
# B2: huN901: control unconjugated antibody whose antigen is NCAM/CD56 (antibody, chains of the INN, looked up, V domains shown)
# VH: B1 VH
# VL: B1 VL
# B3: huN901-DM1 conjugate (Sephacryl S300): huN901 antibody conjugated in one step with maytansinoid 2, Sephacryl S300 purified, average 1.61 DM1 per antibody (conjugate, chains of the INN, looked up)
# VH: B1 VH
# VL: B1 VL
# modifications: DM1 maytansinoid conjugate
# notes: huN901 antibody conjugated in one step with maytansinoid 2, Sephacryl S300 purified, average 1.61 DM1 per antibody
# Assays:
# L1210 cells = L1210 cells treated in vivo; untreated control mitotic index 3.2 to 5.8%; cited from earlier work
# [1] = system: P388, L1210, and LY5178 murine leukemic cell suspensions; conditions: in vitro; P388 line the most sensitive; cited from earlier work
# [2] = system: human acute lymphoblastic leukemia line CEM; conditions: in vitro; cited from earlier work
# [3] = system: human nasopharyngeal carcinoma cells; conditions: cited from earlier work
# [4] = system: P388 lymphocytic leukemia system; conditions: in vivo; suggested a high therapeutic index; cited from earlier work
# [5] = system: L1210 mouse leukemia system; conditions: in vivo; cited from earlier work
# [6] = system: Lewis lung carcinoma system; conditions: in vivo; cited from earlier work
# [7] = system: B-16 melanocarcinoma system; conditions: in vivo; cited from earlier work
# [8] = more cytotoxic; cited from earlier work
# [9] = system: A431 cells constitutively expressing the antigen for huN901 (NCAM/CD56); test: in vitro cytotoxicity (colony formation) towards antigen-expressing cells; assay type: cell-based, human; conditions: 5 to 7 days incubation; for IC50: surviving fraction, FIG. 1, read-out: IC50 in killing antigen positive cells
# Description: The huN901-DM1 conjugates prepared by this new, one step method were evaluated for in vitro cytotoxicity towards antigen-expressing cells as follows. A clone of A431 cells constitutively expressing the antigen for huN901 (NCAM/CD56) were used in this assay. Cells were plated into 6-well tissue-culture treated plates at a density of 2×10^3 cells/well in 2 ml of DMEM medium supplemented with 10% fetal calf serum and penicillin+streptomycin. A huN901-DM1 conjugate or the control huN901 antibody was added to the wells at the time of plating, and the cultures were incubated in a tissue culture incubator at 37° C., 6% CO2, for 5 to 7 days to form colonies not smaller than 25 cells/colony. The plates were then washed with PBS, and then fixed/stained for 30 min at room temperature with 10% formaldehyde/0.2% (w/v) Crystal Violet in PBS. The wells were rinsed 3 times with water, dried by air, and the colonies were counted under a dissection low magnification microscope. The surviving fractions were calculated as the number of colonies in drug-treated well/number of colonies in non-treated well.
molecule,measurement,setting,value
COc1cc2cc(c1Cl)N(C)C(=O)C[C@H](OC(=O)[C@H](C)N(C)C(C)=O)[C@]1(C)O[C@H]1[C@H](C)[C@@H]1C[C@@](O)(NC(=O)O1)[C@H](OC)/C=C/C=C(\C)C2 [maytansine],cells accumulating in mitosis,L1210 cells,67%
same,doses at which cell suspensions were inhibited,[1],10^−3 to 10^−1 μg/μl
same,concentrations at which the line was inhibited,[2],≥ 10^−7 mg/ml
same,inhibition of in vitro growth,[3],active inhibitor
same,dosage range over which tumor growth was inhibited,[4],50- to 100 fold
same,inhibitory activity,[5],significant inhibitory activity
same,inhibitory activity,[6],significant inhibitory activity
same,inhibitory activity,[7],significant inhibitory activity
same,"cytotoxicity relative to conventional cancer chemotherapeutic agents like methotrexate, daunorubicin, and vincristine",[8],100 to 1000 fold
B1,IC50,[9],0.1 nM
B2,toxicity to antigen positive cells,[9]; FIG. 1,non-toxic
B3,IC50,[9],0.1 nM
